Experimental data reported in ChEMBL document CHEMBL1201862, “PubChem BioAssay data set” (2004).
Active and inactive are the calls of the source.

Columns and labels:
[1] = target: T1, Ubiquitin-conjugating enzyme E2 N (Homo sapiens, UniProt P61088); assay type: functional;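 further: Dose-response confirmation in a TR-FRET assay detecting UBC13-driven polyubiquitin chain formation, inhibition measured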
T1 sequence (P61088 whole entry): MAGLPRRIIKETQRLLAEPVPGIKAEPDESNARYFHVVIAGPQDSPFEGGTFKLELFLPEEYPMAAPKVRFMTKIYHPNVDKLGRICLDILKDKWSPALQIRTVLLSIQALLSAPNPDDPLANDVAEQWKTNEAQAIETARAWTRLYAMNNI

Large T antigen = Large T antigen (Simian virus 40, UniProt P03070); assay type: functional, Betapolyomavirus macacae;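 further: Confirmatory-stage PubChem screen for compounds that inhibit SV40 T antigen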
Large T antigen, sequence (P03070 whole entry): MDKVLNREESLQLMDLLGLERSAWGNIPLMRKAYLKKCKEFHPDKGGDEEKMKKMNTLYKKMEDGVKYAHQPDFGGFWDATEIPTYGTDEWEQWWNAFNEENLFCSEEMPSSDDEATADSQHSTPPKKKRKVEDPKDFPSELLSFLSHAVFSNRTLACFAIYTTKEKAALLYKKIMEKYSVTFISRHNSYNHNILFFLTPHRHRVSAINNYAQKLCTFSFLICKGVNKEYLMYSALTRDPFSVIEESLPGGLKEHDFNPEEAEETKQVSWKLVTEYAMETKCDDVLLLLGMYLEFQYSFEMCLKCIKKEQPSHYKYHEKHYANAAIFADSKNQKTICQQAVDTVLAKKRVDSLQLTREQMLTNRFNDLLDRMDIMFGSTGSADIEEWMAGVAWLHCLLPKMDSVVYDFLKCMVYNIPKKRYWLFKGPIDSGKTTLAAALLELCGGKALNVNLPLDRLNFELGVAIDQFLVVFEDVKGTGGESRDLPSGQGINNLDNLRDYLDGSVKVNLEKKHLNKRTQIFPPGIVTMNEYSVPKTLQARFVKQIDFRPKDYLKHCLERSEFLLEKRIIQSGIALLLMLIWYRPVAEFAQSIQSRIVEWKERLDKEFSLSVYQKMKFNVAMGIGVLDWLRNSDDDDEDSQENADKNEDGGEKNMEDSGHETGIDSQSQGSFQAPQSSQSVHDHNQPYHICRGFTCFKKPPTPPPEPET

[2] = target: Tyrosine-protein kinase receptor UFO (Homo sapiens, UniProt P30530); assay type: functional
Tyrosine-protein kinase receptor UFO, sequence (P30530 whole entry): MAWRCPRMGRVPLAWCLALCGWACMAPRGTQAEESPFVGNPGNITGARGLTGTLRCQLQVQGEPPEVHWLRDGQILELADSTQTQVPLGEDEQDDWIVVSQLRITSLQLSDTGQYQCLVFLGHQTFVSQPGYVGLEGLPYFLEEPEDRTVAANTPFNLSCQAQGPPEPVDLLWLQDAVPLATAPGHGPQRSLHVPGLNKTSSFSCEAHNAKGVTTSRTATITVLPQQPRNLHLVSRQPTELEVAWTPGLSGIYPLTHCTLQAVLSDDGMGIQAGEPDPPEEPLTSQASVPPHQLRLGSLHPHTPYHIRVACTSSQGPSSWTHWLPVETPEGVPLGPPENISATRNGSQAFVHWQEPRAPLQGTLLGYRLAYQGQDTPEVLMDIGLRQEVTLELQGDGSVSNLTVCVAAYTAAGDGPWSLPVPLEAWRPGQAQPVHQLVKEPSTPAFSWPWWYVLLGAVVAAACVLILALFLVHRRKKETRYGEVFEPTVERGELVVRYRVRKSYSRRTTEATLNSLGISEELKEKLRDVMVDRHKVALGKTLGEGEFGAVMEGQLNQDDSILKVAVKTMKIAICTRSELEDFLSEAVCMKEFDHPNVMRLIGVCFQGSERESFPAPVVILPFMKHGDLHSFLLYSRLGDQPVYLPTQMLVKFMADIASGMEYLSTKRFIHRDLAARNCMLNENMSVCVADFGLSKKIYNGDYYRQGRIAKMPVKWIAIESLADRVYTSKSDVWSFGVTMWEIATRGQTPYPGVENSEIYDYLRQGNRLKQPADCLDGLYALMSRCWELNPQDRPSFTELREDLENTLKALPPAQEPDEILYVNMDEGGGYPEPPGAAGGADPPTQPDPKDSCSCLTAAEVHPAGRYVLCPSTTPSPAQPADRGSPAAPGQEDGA

[3] = target: Serine/threonine-protein kinase SIK2 (Homo sapiens, UniProt Q9H0K1); test: Navigating the Kinome. Panel member name: SIK2; assay type: functional
Serine/threonine-protein kinase SIK2, sequence (Q9H0K1 whole entry): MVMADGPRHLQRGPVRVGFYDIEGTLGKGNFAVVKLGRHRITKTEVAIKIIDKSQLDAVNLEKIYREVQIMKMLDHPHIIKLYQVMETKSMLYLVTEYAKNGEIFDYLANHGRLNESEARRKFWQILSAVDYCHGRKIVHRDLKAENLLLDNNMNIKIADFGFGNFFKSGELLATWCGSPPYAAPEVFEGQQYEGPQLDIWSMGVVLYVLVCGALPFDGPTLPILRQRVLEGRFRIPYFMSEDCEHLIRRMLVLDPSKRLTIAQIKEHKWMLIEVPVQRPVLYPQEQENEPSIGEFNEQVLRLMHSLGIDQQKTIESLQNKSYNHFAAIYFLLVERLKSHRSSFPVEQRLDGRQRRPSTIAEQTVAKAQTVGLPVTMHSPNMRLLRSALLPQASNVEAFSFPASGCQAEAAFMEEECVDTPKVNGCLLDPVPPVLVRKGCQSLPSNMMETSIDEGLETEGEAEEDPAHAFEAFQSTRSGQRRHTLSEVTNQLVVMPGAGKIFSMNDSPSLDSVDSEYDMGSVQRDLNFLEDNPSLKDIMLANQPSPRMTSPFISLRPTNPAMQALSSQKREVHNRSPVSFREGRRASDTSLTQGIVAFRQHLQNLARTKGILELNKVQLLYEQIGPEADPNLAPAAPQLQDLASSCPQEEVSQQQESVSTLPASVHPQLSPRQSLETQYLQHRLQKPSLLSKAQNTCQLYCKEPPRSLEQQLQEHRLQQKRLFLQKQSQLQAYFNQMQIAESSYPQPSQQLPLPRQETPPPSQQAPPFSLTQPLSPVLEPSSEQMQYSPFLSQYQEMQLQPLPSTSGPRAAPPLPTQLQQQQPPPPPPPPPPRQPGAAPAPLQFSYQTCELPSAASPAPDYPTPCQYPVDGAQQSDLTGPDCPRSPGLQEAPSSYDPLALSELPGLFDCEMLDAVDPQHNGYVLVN

[4] = target: Tyrosine-protein kinase Lyn (Homo sapiens, UniProt P07948); assay type: functional;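 further: lyn as one member of a kinase panel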
Tyrosine-protein kinase Lyn, sequence (P07948 whole entry): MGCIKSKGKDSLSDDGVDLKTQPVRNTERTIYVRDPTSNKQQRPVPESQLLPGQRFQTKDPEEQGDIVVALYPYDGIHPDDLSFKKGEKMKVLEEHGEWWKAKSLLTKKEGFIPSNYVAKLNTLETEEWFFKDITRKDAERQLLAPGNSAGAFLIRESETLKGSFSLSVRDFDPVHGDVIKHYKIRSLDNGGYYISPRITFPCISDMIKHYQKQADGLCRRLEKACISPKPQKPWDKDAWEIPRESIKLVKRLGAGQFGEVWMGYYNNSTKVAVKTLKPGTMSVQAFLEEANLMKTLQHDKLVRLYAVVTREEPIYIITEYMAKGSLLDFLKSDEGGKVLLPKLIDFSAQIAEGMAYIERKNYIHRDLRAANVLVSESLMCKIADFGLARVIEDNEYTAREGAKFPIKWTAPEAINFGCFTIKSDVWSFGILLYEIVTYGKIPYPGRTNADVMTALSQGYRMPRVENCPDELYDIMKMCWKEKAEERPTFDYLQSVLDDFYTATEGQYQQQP

[5] = target: Serine/threonine-protein kinase Nek4 (Homo sapiens, UniProt P51957); assay type: functional
[6] = target: Mitogen-activated protein kinase kinase kinase 10 (Homo sapiens, UniProt Q02779); test: Navigating the Kinome. Panel member name: MAP3K10; assay type: functional
[7] = target: cAMP-dependent protein kinase catalytic subunit PRKX (Homo sapiens, UniProt P51817); assay type: functional
cAMP-dependent protein kinase catalytic subunit PRKX, sequence (P51817 whole entry): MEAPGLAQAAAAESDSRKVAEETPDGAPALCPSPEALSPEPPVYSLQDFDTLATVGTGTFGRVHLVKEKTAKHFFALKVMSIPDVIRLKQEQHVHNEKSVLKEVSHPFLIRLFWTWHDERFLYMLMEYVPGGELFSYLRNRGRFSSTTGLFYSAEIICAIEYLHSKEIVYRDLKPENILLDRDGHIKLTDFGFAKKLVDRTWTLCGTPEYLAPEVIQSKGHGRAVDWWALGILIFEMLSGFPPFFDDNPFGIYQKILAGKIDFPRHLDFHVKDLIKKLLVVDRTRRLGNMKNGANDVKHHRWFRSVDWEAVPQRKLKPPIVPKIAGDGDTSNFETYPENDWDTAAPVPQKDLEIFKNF

[8] = target: Serine/threonine-protein kinase PAK 4 (Homo sapiens, UniProt O96013); assay type: functional;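 further: value obtained within a kinome profiling panel in which PAK4 was one of the panel members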
Serine/threonine-protein kinase PAK 4, sequence (O96013 whole entry): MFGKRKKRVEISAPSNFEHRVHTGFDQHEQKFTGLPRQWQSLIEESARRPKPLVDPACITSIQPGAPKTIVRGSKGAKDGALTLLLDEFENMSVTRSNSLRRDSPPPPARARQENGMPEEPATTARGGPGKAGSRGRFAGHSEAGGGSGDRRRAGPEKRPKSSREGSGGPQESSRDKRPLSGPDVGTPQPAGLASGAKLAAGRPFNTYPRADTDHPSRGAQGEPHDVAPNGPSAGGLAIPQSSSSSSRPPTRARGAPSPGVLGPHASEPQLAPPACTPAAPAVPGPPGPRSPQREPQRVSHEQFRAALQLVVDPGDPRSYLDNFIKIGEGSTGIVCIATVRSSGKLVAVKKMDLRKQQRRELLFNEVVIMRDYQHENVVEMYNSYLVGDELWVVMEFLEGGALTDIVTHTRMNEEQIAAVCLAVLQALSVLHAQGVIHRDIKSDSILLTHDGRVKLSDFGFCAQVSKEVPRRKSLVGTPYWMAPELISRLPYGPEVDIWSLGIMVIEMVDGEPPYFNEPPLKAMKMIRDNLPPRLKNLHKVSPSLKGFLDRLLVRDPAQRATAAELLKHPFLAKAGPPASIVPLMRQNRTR

[9] = AlphaScreen signal interference compounds, dose response, artefact control for ARNT-TACC3 interaction inhibitor project, biochemical, luminescence, cherry-pick (AID 651705); assay type: functional;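 further: AlphaScreen bead proximity signal that flags compounds interfering with the detection technology; potency reflects signal decrease which marks the compound as an assay artifact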
[10] = target: T2, Heat shock factor protein 1 (Mus musculus, UniProt P38532); test: inhibition of MG132-induced HSE-luciferase signal, confirmation, cell-based, NIH3T3, luminescence, dose retest (AID 2382); assay type: functional;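 further: NIH3T3 fibroblasts with HSF1-driven luciferase reporter stressed by proteasome inhibitor MG132; luminescence from HSF1-driven luciferase expression after 8 hours of MG132 stress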
T2 sequence (P38532 whole entry): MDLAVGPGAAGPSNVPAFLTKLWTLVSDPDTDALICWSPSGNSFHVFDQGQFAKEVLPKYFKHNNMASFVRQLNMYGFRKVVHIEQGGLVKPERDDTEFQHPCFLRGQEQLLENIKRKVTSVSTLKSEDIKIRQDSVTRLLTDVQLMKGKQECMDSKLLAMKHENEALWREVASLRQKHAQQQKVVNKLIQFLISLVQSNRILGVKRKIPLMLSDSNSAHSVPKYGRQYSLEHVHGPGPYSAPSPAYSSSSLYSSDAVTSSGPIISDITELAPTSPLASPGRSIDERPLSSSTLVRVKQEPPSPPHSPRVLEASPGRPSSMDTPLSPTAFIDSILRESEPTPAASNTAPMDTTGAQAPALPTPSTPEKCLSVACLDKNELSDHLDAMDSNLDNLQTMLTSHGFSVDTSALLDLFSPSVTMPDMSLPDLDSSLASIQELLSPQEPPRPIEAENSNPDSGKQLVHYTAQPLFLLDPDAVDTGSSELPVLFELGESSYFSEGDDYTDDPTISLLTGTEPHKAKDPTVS

[11] = Luminescence Cell-Based Dose Retest to Confirm Inhibitors of Cancer Stem Cells. [Related pubchem assays (depositor defined):AID2717, AID2721]; assay type: functional; conditions: Homo sapiens
[12] = target: Intestinal-type alkaline phosphatase (Mus musculus, UniProt P24822); test: PubChem AID 488785; assay type: functional
Intestinal-type alkaline phosphatase, sequence (P24822 whole entry): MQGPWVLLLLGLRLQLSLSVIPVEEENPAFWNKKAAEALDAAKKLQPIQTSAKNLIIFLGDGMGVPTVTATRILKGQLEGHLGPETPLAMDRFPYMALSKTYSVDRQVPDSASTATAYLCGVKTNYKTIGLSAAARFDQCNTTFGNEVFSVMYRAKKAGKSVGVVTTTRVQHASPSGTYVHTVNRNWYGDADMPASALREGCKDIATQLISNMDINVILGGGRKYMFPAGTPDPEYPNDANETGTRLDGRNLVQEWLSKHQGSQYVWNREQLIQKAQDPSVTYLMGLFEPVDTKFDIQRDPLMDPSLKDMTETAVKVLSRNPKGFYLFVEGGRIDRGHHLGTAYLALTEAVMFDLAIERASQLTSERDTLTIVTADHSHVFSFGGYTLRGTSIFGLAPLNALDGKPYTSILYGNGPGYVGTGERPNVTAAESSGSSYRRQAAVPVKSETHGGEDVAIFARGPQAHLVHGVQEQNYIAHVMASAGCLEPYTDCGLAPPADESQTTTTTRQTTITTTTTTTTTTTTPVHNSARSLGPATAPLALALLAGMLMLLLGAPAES

In the case of `COc1cccc2c1NC(C(=O)O)C1CC=CC21` (stereo not drawn), the IC50 [1] is reported as 19.1 µM (active) and the IC50 (Large T antigen) is reported as 42.5 µM (active).
For `Cc1ccc(F)c(NC(=O)Nc2ccc(-c3cccc4[nH]nc(N)c34)cc2)c1` [LINIFANIB], the Ki [2] was 0.126 µM (active), the Ki [3] was > 3.98 µM (inactive) and the Ki [4] was 0.251 µM (active). For the same compound, the Ki [5] was > 6.31 µM (inactive) and the Ki [6] was > 3.16 µM (inactive).
In the case of `COc1c(-c2nc3ccccc3[nH]2)c(O)cc2oc(C)cc(=O)c12`, the Ki [7] is reported as > 3.16 µM (inactive) and the Ki [8] is reported as > 5.01 µM (inactive).
For `Cc1cc([N+](=O)[O-])cc(/C=N\NC(=O)C2COc3ccccc3O2)c1O` (stereo not drawn), the AC50 [9] was 93.6 µM (active).
With `CCc1ccc(S(=O)(=O)/N=C2\C=C(Nc3ccc(O)cc3)C(=O)c3ccccc32)cc1` the EC50 [10] was 1.16 µM (active).
For `O=C1/C(=C\c2cccc(O)c2O)SC(=S)N1Cc1ccccc1`, the AC50 [11] was 1.67 µM (active) and the IC50 [12] was 3.23 µM (active).
